Source: publication PMC11169864, “Application of cysteinyl prolyl ester for the synthesis of cyclic peptides containing an RGD sequence and their biological activity measurement” (Frontiers in Chemistry, 2024)
Non-standard residues stand in square brackets, D forms with d.

Test system: αvβ6 integrin
Test: Integrin inhibition assay (ELISA): inhibition of αvβ6 integrin binding to LAP (TGF-β1)
Parameters: species or system human
Details: 1 µM peptide preincubated 1 h at room temperature with 10 nM integrin αvβ6, 1.0 mM Mn2+, plate coated with 10 nM LAP (TGF-β1), absorbance at 490 nm, mean ± standard error, N = 3, numbers only in Figure 8, text gives comparisons in words
Source text: Among the RGD-binding integrins, we selected αvβ6 integrin for measurement of the inhibition activity of the cyclic peptides. The αvβ6 integrin is reported to recognize the sequence beyond the RGD motif, RGDLXXL ([Dong et al., 2014]). Therefore, the inhibition activity of the cyclic peptides is expected to vary depending on the configuration and the modification at the CPC moiety. In addition, the inhibitor of the αvβ6 integrin is still under development ([John et al., 2020]), while an efficient inhibitor, cilengitide, exists for the αvβ3 and αvβ5 integrins ([Stupp and Ruegg, 2007]). […] The inhibitory activity of the commonly used RGD tripeptide was also measured as a control. […]
The integrin inhibition assay was performed as follows. […] The bound αvβ6 integrin was detected by the biotinylated anti-Velcro polyclonal antibody and horseradish peroxidase-conjugated streptavidin. […] The bound antibody was detected by horseradish peroxidase-conjugated streptavidin (0.53 μg/mL), followed by colorimetrically measuring the amount of bound αvβ6 integrin using o-phenylenediamine (0.4 mg/mL; FUJIFILM Wako) and H2O2 (0.006%) in a 25 mM citric acid/50 mM Na2HPO4 buffer. The colorimetric reaction was stopped with 100 μL of 2.5 M H2SO4, and the absorbance of the chromogenic substrate was measured at 490 nm using a microplate reader (Molecular Devices EMax). […]

| Inhibitory activity for binding of the αvβ6 integrin with LAP (TGF-β1) | Substance |
| --- | --- |
| stronger than 3c and 3d | cyclo(CRGDC[dP]) (cysteine pairing not given here) [3a] |
| stronger than 3c and 3d | cyclo([dC]RGDC[dP]) (cysteine pairing not given here) [3b] |
